Several values for one entry are separate records, joined by “and”; a condition that tells them apart may be missing. Equal entries are not always repeated.
Key:
Format in all cases: in vivo
Sorghum = experiment: Greenhouse safening test: % plant inhibition of sorghum by herbicide with and without safener; conditions: approx. 21 days; for % Plant Inhibition, Sorghum (herbicide plus safener): H-1 (alachlor) 2.2 kg/ha plus safener 9.0 kg/ha, left-hand figure
Description: (§1) Seed plantings and the sequential application of the herbicide and safening agents are accomplished in the following manner:
(§2) A fumigated silt loam to top soil is placed in a container and compacted to a depth of approximately 1.27 cm. from the top of said container. A predetermined number of seeds of each of the crop species to be tested are placed on top of the soil. A quantity of soil sufficient to substantially fill the container is measured and placed in a second container. A measured quantity of the herbicide dispersed or dissolved in a suitable carrier is applied to the soil in the second container. A measured quantity of the safening agent dispersed or dissolved in a suitable carrier is thereafter sprayed on the soil already treated with the […]. The soil containing the safening agent and/or herbicide is thoroughly mixed. This mixing is sometimes referred to as incorporation of the herbicide and safening agent into the soil. The mixing or incorporation provides a substantially uniform distribution of the safening agent and herbicide throughout the soil. The seeds are covered with the soil containing the safening agent and/or herbicide or with untreated soil, and the pots are leveled. The pots are then placed on a sand bench in a greenhouse and watered from below as needed. When the seeds are treated with safener, the application of the safener to the soil is omitted. The coated seeds are placed on top of the soil in the pot and the balance of the treatment procedure is the same. The plants are observed at the end of approximately 21 days and the results in terms of percent inhibition of growth are recorded.
(§3) For each test series, a pot is also prepared containing no herbicide and no safening agent as a control. For each treatment, the herbicidal activity is observed on pots treated with the same quantity of herbicide alone. The results are observed and recorded as percent inhibition of each plant species tested. The tank mixes of know herbicides, safeners or combinations thereof were prepared by dissolving the appropriate amount of active ingredient in acetone. In Table 2 the results of testing the compounds of the present invention have been set forth. The rates of herbicide application are given in kilograms per hectare. In each treatment the amount of safener employed was 9.0 kilograms per hectare. In the % Plant Inhibition section of Table 2 under the listed crop columns the data are the inhibitions for herbicide plus safener on the left side and for the herbicide alone on the right side. The known herbicides are identified as follows. Throughout the examples, the herbicides are individually identified by reference numbers H-1 and H-2.

Wheat = experiment: Greenhouse safening test: % plant inhibition of wheat by herbicide with and without safener; conditions: approx. 21 days; for % Plant Inhibition, Wheat (herbicide plus safener): H-1 (alachlor) 2.2 kg/ha plus safener 9.0 kg/ha, left-hand figure
Description: as §1, §2, §3

Rice = experiment: Greenhouse safening test: % plant inhibition of rice by herbicide with and without safener; conditions: approx. 21 days; for % Plant Inhibition, Rice (herbicide plus safener): left-hand figure; for % Plant Inhibition, Rice (herbicide alone): right-hand figure
Description: as §1, §2, §3

[1] = H-2 (butachlor) 4.5 kg/ha plus safener 9.0 kg/ha
[2] = H-1 (alachlor) 2.2 kg/ha alone, right-hand figure

SMILES	% Plant Inhibition, Sorghum (herbicide plus safener) (Sorghum) [%]	% Plant Inhibition, Wheat (herbicide plus safener) (Wheat) [%]	% Plant Inhibition, Rice (herbicide plus safener) (Rice; [1]) [%]	other results
Cn1c(SC2(C#N)CC2)nnc1C(F)(F)F [Compound 1, 1([4-methyl-5-(trifluoromethyl)4H.1,2,4-triazol-3 yl]thio)-1-cyclopropanecarbonitrile]	100	75	95	
N#CC1(Sc2nc(-c3ccccc3)cs2)CC1 [Compound 2, 1-[(4-phenyl-2-thiazolyl)thio]-1-cyclopropanecarbonitrile]	45		90	% Plant Inhibition, Rice (herbicide plus safener) (Rice; H-1 (alachlor) 2.2 kg/ha plus safener 9.0 kg/ha): 95%
Cc1ccnc(SC2(C#N)CC2)n1 [Compound 3, 1-[(4-methyl-2-pyrimidinyl)thio]-1-cyclopropanecarbonitrile]	95	90	40	
Cn1ccnc1SC1(C#N)CC1 [Compound 4, 1-[(1-methyl-1H--imidazol-2-yl)thio]-1-cyclopropanecarbonitrile]	20	100	95	
CCc1cccc(CC)c1N(COC)C(=O)CCl [Compound H-1, 2-chloro-2',6'-diethyl-N-(methoxymethyl) acetanilide, reference compound]				% Plant Inhibition, Sorghum (herbicide alone) (Sorghum; [2]): 90% and 80% and 85%; % Plant Inhibition, Wheat (herbicide alone) (Wheat; [2]): 90% and 75% and 80%; % Plant Inhibition, Rice (herbicide alone) (Rice; H-1 (alachlor) 2.2 kg/ha alone): 90%
CCCCOCN(C(=O)CCl)c1c(CC)cccc1CC [Compound H-2, 2-chloro-2',6'-diethyl-N-(butoxymethyl) acetanilide, reference compound]				% Plant Inhibition, Rice (herbicide alone) (Rice; H-2 (butachlor) 4.5 kg/ha alone): 90% and 75% and 60%

Reference: patent US4584376A, “1-heterocyclicthio-1-cyclopropanecarbonitriles as crop protectants” (Monsanto Company, priority 1982, dated 1986)
